Assay results taken from ChEMBL document CHEMBL1201862, “PubChem BioAssay data set” (2004).
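Five compound concentrations were applied to cells in 96-well plates for 48 hours; endpoints were derived by simple linear interpolation of the resulting dose-response curve. GI50 = concentration required for 50% inhibition of growth.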 Activity calls are given as the source filed them. No stated cut-off is given here; in the data, active = GI50 up to about 1.1 µM and inactive = higher.

Legend:
Assay in all cases: NCI anticancer screen, dose series, 48 h
A498 = test system: A498
A549 = test system: A549
ACHN = test system: ACHN
CAKI-1 = test system: CAKI-1
HCT-15 = test system: HCT-15
HOP-62 = test system: HOP-62
Hs-578T = test system: Hs-578T
IGROV-1 = test system: IGROV-1
M14 = test system: M14
NCI-H226 = test system: NCI-H226
OVCAR-4 = test system: OVCAR-4
OVCAR-5 = test system: OVCAR-5
SF-295 = test system: SF-295
SK-OV-3 = test system: SK-OV-3
SW-620 = test system: SW-620
UO-31 = test system: UO-31
786-0 = test system: 786-0
SF-268 = test system: SF-268
UACC-62 = test system: UACC-62
SF-539 = test system: SF-539

Compound	GI50 (A498)	GI50 (A549)	GI50 (ACHN)	GI50 (CAKI-1)	GI50 (HCT-15) [µM]	GI50 (HOP-62)	GI50 (Hs-578T)	GI50 (IGROV-1)	GI50 (M14)	GI50 (NCI-H226)	GI50 (OVCAR-4)	GI50 (OVCAR-5)	GI50 (SF-295)	GI50 (SK-OV-3)	GI50 (SW-620)	GI50 (UO-31)	GI50 (786-0)	GI50 (SF-268)	GI50 (UACC-62)	GI50 (SF-539)
CCOP(=O)(CN=C(c1ccccc1)c1ccccc1)OCC	73.8 µM (inactive)	> 100 µM (inactive)	> 100 µM (inactive)	> 100 µM (inactive)	> 100	> 100 µM (inactive)	> 100 µM (inactive)	> 100 µM (inactive)	> 100 µM (inactive)	> 100 µM (inactive)	> 100 µM (inactive)	> 100 µM (inactive)	> 100 µM (inactive)	> 100 µM (inactive)	> 100 µM (inactive)	> 100 µM (inactive)	–	–	–	–
Oc1c(Br)ccc2cccnc12	8.81 µM (inactive)	3.14 µM (inactive)	3.13 µM (inactive)	5.94 µM (inactive)	0.948	12.4 µM (inactive)	3.21 µM (inactive)	0.938 µM (active)	–	5.19 µM (inactive)	2.1 µM (inactive)	4.32 µM (inactive)	0.834 µM (active)	4.21 µM (inactive)	4.81 µM (inactive)	1.64 µM (inactive)	3.91 µM (inactive)	0.646 µM (active)	1.52 µM (inactive)	–
Cc1ccc(S(=O)(=O)N(C=O)N=C2CCN(Cc3ccccc3)CC2)cc1	> 100 µM (inactive)	> 100 µM (inactive)	> 100 µM (inactive)	> 100 µM (inactive)	> 100	> 100 µM (inactive)	–	> 100 µM (inactive)	> 100 µM (inactive)	> 100 µM (inactive)	> 100 µM (inactive)	> 100 µM (inactive)	> 100 µM (inactive)	> 100 µM (inactive)	> 100 µM (inactive)	> 100 µM (inactive)	> 100 µM (inactive)	–	> 100 µM (inactive)	> 100 µM (inactive)
CC(C(=O)NCCNC(=O)CCCC(=O)N(C)O)C(=O)NCCNC(=O)CCCC(=O)N(C)O	> 100 µM (inactive)	> 100 µM (inactive)	> 100 µM (inactive)	> 100 µM (inactive)	> 100	> 100 µM (inactive)	> 100 µM (inactive)	> 100 µM (inactive)	> 100 µM (inactive)	> 100 µM (inactive)	> 100 µM (inactive)	> 100 µM (inactive)	> 100 µM (inactive)	> 100 µM (inactive)	> 100 µM (inactive)	> 100 µM (inactive)	–	> 100 µM (inactive)	> 100 µM (inactive)	–
N#CC1=C(O)NC(O)=C(C#N)C1c1c(Cl)cccc1Cl	23.2 µM (inactive)	27.3 µM (inactive)	33.3 µM (inactive)	30.1 µM (inactive)	20.4	27.7 µM (inactive)	–	40.6 µM (inactive)	26.9 µM (inactive)	17.9 µM (inactive)	67.8 µM (inactive)	33.5 µM (inactive)	34.8 µM (inactive)	23.6 µM (inactive)	37.2 µM (inactive)	37.9 µM (inactive)	–	30.9 µM (inactive)	23.5 µM (inactive)	20 µM (inactive)
CCCCN(C(=O)c1ccccc1)C1CCC(=O)c2[nH]c3ccccc3c21 (stereo not given)	29 µM (inactive)	34.4 µM (inactive)	31.3 µM (inactive)	20.8 µM (inactive)	24.5	40.4 µM (inactive)	16.9 µM (inactive)	46.3 µM (inactive)	67.1 µM (inactive)	29 µM (inactive)	26.7 µM (inactive)	–	30.5 µM (inactive)	61.1 µM (inactive)	59.4 µM (inactive)	66.5 µM (inactive)	42.1 µM (inactive)	45.4 µM (inactive)	25 µM (inactive)	31.5 µM (inactive)
COc1ccc(C2c3cc4c(cc3OC(NCCO)C2C)OCO4)cc1 (stereo not given)	17.3 µM (inactive)	21.7 µM (inactive)	29.6 µM (inactive)	23.5 µM (inactive)	17.7	29.8 µM (inactive)	19.3 µM (inactive)	28.8 µM (inactive)	26.4 µM (inactive)	28.2 µM (inactive)	–	39.7 µM (inactive)	27.9 µM (inactive)	38.1 µM (inactive)	34.4 µM (inactive)	20.5 µM (inactive)	–	23.2 µM (inactive)	28.2 µM (inactive)	20 µM (inactive)
Cc1nn(C)c2c1C(=O)N(C)CC(=O)N2C	> 100 µM (inactive)	> 100 µM (inactive)	> 100 µM (inactive)	> 100 µM (inactive)	69.7	> 100 µM (inactive)	> 100 µM (inactive)	> 100 µM (inactive)	> 100 µM (inactive)	–	> 100 µM (inactive)	> 100 µM (inactive)	> 100 µM (inactive)	> 100 µM (inactive)	> 100 µM (inactive)	> 100 µM (inactive)	> 100 µM (inactive)	> 100 µM (inactive)	> 100 µM (inactive)	> 100 µM (inactive)
CC(C)(C)C1=C(Br)C(Br)(C(C)(C)C)OP1(=O)c1ccccc1 (stereo not given)	> 100 µM (inactive)	> 100 µM (inactive)	> 100 µM (inactive)	> 100 µM (inactive)	> 100	> 100 µM (inactive)	> 100 µM (inactive)	> 100 µM (inactive)	> 100 µM (inactive)	–	> 100 µM (inactive)	> 100 µM (inactive)	> 100 µM (inactive)	> 100 µM (inactive)	> 100 µM (inactive)	> 100 µM (inactive)	> 100 µM (inactive)	> 100 µM (inactive)	> 100 µM (inactive)	> 100 µM (inactive)
O=C1CCCCC2N(C(c3ccccc3)c3ccccc3)CC[C@@]12c1ccccc1.O=C1CCCC[C@H]2N(C(c3ccccc3)c3ccccc3)CC[C@@]12c1ccccc1 (stereo not given in full)	> 10 µM (inactive)	> 10 µM (inactive)	8.87 µM (inactive)	4.83 µM (inactive)	7.93	–	–	> 10 µM (inactive)	> 10 µM (inactive)	6.38 µM (inactive)	4.21 µM (inactive)	> 10 µM (inactive)	> 10 µM (inactive)	> 10 µM (inactive)	–	8.05 µM (inactive)	–	> 10 µM (inactive)	> 10 µM (inactive)	> 10 µM (inactive)
Nc1ccc(N(S(=O)(=O)c2ccccc2)S(=O)(=O)c2ccccc2)c(Cl)c1	25.2 µM (inactive)	50.5 µM (inactive)	66.5 µM (inactive)	47.3 µM (inactive)	55.7	63.8 µM (inactive)	64 µM (inactive)	62.1 µM (inactive)	77.6 µM (inactive)	73.5 µM (inactive)	75.3 µM (inactive)	> 100 µM (inactive)	32.2 µM (inactive)	–	42.9 µM (inactive)	> 100 µM (inactive)	81.1 µM (inactive)	69.2 µM (inactive)	24.8 µM (inactive)	69 µM (inactive)
CC(=O)O[C@H]1C[C@@H](OC(C)=O)[C@@](C)(O)[C@@H]2[C@@H](OC(C)=O)[C@@]3(O)[C@H](/C=C(/CCl)[C@H]4O[C@H]4[C@@H](OC(C)=O)[C@@]12C)OC(=O)[C@@H]3C	> 25 µM (inactive)	> 25 µM (inactive)	> 25 µM (inactive)	> 25 µM (inactive)	> 25	> 25 µM (inactive)	> 25 µM (inactive)	> 25 µM (inactive)	> 25 µM (inactive)	> 25 µM (inactive)	> 25 µM (inactive)	> 25 µM (inactive)	17.7 µM (inactive)	> 25 µM (inactive)	> 25 µM (inactive)	> 25 µM (inactive)	> 25 µM (inactive)	> 25 µM (inactive)	> 25 µM (inactive)	–
N#Cc1c(NC(=S)NC(=O)c2ccccc2)nc2c(c1-c1ccccc1)CCCC2	–	> 100 µM (inactive)	–	> 100 µM (inactive)	> 100	45.3 µM (inactive)	17 µM (inactive)	> 100 µM (inactive)	> 100 µM (inactive)	–	22.5 µM (inactive)	> 100 µM (inactive)	34.9 µM (inactive)	31.4 µM (inactive)	> 100 µM (inactive)	88.7 µM (inactive)	–	0.299 µM (active)	> 100 µM (inactive)	–
O=C1C=C(Sc2ccccc2)c2nccc3c2c1nc1ccccc13	–	31.5 µM (inactive)	19.3 µM (inactive)	44.2 µM (inactive)	12.2	14 µM (inactive)	15.8 µM (inactive)	11.2 µM (inactive)	13.3 µM (inactive)	72.6 µM (inactive)	16.1 µM (inactive)	32.4 µM (inactive)	29.4 µM (inactive)	80 µM (inactive)	14.8 µM (inactive)	12.8 µM (inactive)	16.9 µM (inactive)	12.4 µM (inactive)	15.5 µM (inactive)	17.1 µM (inactive)
CCC(=O)NC(NNS(=O)(=O)c1ccc(C)cc1)(C(F)(F)F)C(F)(F)F	> 100 µM (inactive)	35.7 µM (inactive)	49.9 µM (inactive)	> 100 µM (inactive)	32.1	65.2 µM (inactive)	34.2 µM (inactive)	49.4 µM (inactive)	37.6 µM (inactive)	> 100 µM (inactive)	–	> 100 µM (inactive)	> 100 µM (inactive)	64.3 µM (inactive)	33.7 µM (inactive)	34.2 µM (inactive)	> 100 µM (inactive)	55 µM (inactive)	38.9 µM (inactive)	54 µM (inactive)
